Laboratory results reported in patent US12194050B2, “Thiadiazine derivatives” (RICHTER GEDEON NYRT., priority 2018, dated 2025).
pEC50: −log10 of the molar value.

molecular target: human α7 nAchR (Homo sapiens (Human), UniProt P36544); test: Human α7 nicotinic acetylcholine receptor [Ca2+]i assay (PAM, Ca2+ fluorometry); assay type: cell-based; conditions: Flp-In 293 cells expressing human α7 nAchR and human RIC-3; in presence of saturating agonist (mostly PNU-282987, 1 μM)
Procedure: Biological Activity Human α7 Nicotinic Acetylcholine Receptor [Ca^2+]i Assay
Cells: Flp-In 293 cells stably expressing human α7 nAchR and human RIC-3 (α7 cells, generated in house.)
Materials: 96-well plates coated with PDL (Falcon), culture medium, assay buffer, DMSO, FLIPR Calcium 5 kit (Molecular Devices), probenecid, agonist and PAM test compounds.
Brief Description of the Method (Ca^2+ Fluorometry)
α7 cells stably expressing human α7 nAchR were cultured in the medium detailed above, and were split twice a week. For the fluorometric measurements of cytosolic Ca^2+ ion concentration ([Ca^2+]i) cells were seeded in 96-well microplates at a density of 60000 cells/well and maintained overnight in a tissue culture incubator at 37° C. under an atmosphere of 95% air/5% CO2. The plating medium was identical with the culture medium. 50 μl of the growth medium was aspirated with a cell washer (BioTek Elx405UCVWS). Then 50 μl/well Calcium 5 kit diluted 2-fold in assay buffer was added manually using an 8-channel pipette. After an incubation period (20 minutes, 37° C.) 50 μl/well assay buffer containing vehicle (DMSO, 4% added) or reference α7 PAMs (4×of the final concentration) were added manually and the cells were incubated for an additional 10 minutes at 37° C. Baseline and agonist-evoked [Ca2+]i-changes were monitored with FlexStation II (Molecular Devices, Sunnyvale, Calif.), a plate reader fluorometer with integrated 8-channel fluid addition capability. Fluorescence measurements were carried out at 37° C. The dye was excited at 485 nm, emission was sampled at 525 nm at 1.4-s intervals. Baseline was recorded for 20 seconds followed by agonist stimulation. 50 μl 4× concentrated agonist solution was added to the cells using the pipettor of FlexStation II and fluorescence was monitored for an additional 40 seconds. Final DMSO concentration was 1% for all treatments. To achieve this, a series of DMSO stock solutions were prepared from all test compounds. These stocks were stored under 0° C. and were further diluted in assay buffer to obtain the desired final concentration immediately before the measurement. Agonist and PAM concentration-response studies were conducted in the presence of saturating concentrations of PAMs (mostly PNU-120596, 5 μM) and agonists (mostly PNU-282987, 1 μM), respectively. Results were expressed as ΔF/F values using SoftMax Pro software (Molecular Devices), where F was the resting fluorescence preceding agonist application and ΔF was the increase in fluorescence at a given time (ΔF=maximum fluorescence intensity values after stimulation minus average fluorescence intensity values before stimulation). In all experiments, all treatments were measured in multiple wells in parallel, and the mean ΔF/F values were used for analysis.

human α7 nAchR, sequence (P36544 23-502): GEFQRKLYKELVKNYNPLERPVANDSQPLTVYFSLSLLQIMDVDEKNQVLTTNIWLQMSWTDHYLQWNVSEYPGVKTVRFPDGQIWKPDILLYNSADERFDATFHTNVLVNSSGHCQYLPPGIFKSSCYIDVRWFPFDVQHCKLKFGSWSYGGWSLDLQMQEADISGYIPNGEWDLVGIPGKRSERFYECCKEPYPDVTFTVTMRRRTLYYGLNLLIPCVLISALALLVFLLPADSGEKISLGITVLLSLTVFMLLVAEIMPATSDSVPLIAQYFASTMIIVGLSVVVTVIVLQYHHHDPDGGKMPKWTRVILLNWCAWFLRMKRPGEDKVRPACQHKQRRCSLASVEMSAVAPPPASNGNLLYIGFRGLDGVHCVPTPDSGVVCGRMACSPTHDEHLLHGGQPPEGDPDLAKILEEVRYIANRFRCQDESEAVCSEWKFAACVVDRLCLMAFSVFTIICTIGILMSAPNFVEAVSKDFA

pEC50 | SMILES
5.92 | COc1ccc(C2=NS(=O)(=O)N(C(C)C)C(C(=O)Nc3cccc(Nc4cccc(F)n4)n3)=C2)cc1OC [Example 90]
6.51 | COCCN1C(C(=O)Nc2cccc(C(F)(F)F)n2)=CC([C@H]2CC[C@H](C(F)(F)F)CC2)=NS1(=O)=O [Example 128]
6.28 | COc1ccc(C2=NS(=O)(=O)N(CC(F)(F)F)C(C(=O)Nc3cccc(C(F)(F)F)c3)=C2)cc1OC [Example 118]
6.03 | COc1ccc(C2=NS(=O)(=O)N(C)C(C(=O)Nc3cccc(Cl)c3)=C2)cc1OC [Example 20]
6.40 | COc1ccc(C2=NS(=O)(=O)N(C)C(C(=O)Nc3cccc(C(F)(F)F)c3)=C2)cc1C [Example 23]
6.37 | CCN1C(C(=O)Nc2cccc(C(F)(F)F)n2)=CC(C2CCCCCC2)=NS1(=O)=O [Example 66]
7.00 | CCN1C(C(=O)Nc2cccc(F)n2)=CC([C@H]2CC[C@H](C(F)(F)F)CC2)=NS1(=O)=O [Example 61]
6.46 | CCN1C(C(=O)Nc2cccc(C(F)F)n2)=CC([C@H]2CC[C@H](C(F)(F)F)CC2)=NS1(=O)=O [Example 80]
6.89 | CCN1C(C(=O)Nc2ccc(C)c(C)c2)=CC(c2ccc(OC)c(OC)c2)=NS1(=O)=O [Example 34]
6.19 | COc1ccc(C2=NS(=O)(=O)N(C(C)C)C(C(=O)Nc3cc(Cl)ccn3)=C2)cc1OC [Example 110]
5.70 | COc1ccc(C2=NS(=O)(=O)N(C)C(C(=O)Nc3ccn4nccc4c3)=C2)cc1OC [Example 7]
6.92 | CC[C@@H](C)N1C(C(=O)Nc2cccc(C(F)(F)F)n2)=CC(c2ccc(OC)c(OC)c2)=NS1(=O)=O [Example 81]
5.89 | CCc1ccc(NC(=O)C2=CC(c3ccc(OC)c(OC)c3)=NS(=O)(=O)N2C)cc1 [Example 6]
6.96 | COc1ccc(C2=NS(=O)(=O)N(C)C(C(=O)Nc3cccc(C)c3)=C2)cc1Cl [Example 27]
6.89 | O=C(Nc1ccnc(C(F)(F)F)n1)C1=CC([C@H]2CC[C@H](C(F)(F)F)CC2)=NS(=O)(=O)N1CC1CC1 [Example 137]
7.26 | C=CCN1C(C(=O)Nc2cccc(C(F)(F)F)n2)=CC(c2ccc(OC)c(OC)c2)=NS1(=O)=O [Example 107]
6.85 | CCN1C(C(=O)Nc2cccc(C(F)(F)F)n2)=CC([C@H]2CC3C[C@@H]3C2)=NS1(=O)=O (stereo partly shown) [Example 71]
5.70 | CCN1C(C(=O)Nc2cccc(C(F)(F)F)c2F)=CC([C@H]2CC[C@H](C(F)(F)F)CC2)=NS1(=O)=O [Example 57]
6.02 | CCN1C(C(=O)Nc2cccc(C(F)(F)F)n2)=CC(C2CC=CC2)=NS1(=O)=O [Example 75]
6.33 | CN1C(C(=O)Nc2cccc(C(F)(F)F)n2)=CC(C2CCC(F)(F)CC2)=NS1(=O)=O [Example 55]

pEC50 | SMILES
6.48 | CCN1C(C(=O)Nc2cccc(C(F)(F)F)c2)=CC(c2ccc(C(F)(F)F)c(OC)c2)=NS1(=O)=O [Example 48]
6.36 | COc1ccc(NC(=O)C2=CC(c3ccc(OC)c(OC)c3)=NS(=O)(=O)N2C)cc1 [Example 11]
7.15 | O=C(Nc1cccc(C(F)(F)F)n1)C1=CC([C@H]2CC[C@H](C(F)(F)F)CC2)=NS(=O)(=O)N1CC1CC1 [Example 106]
6.92 | CC[C@H](C)N1C(C(=O)Nc2cccc(C(F)(F)F)n2)=CC(c2ccc(OC)c(OC)c2)=NS1(=O)=O [Example 82]
5.85 | COc1ccc(C2=NS(=O)(=O)N(C)C(C(=O)Nc3ccc4c(c3)CCN(C)C4=O)=C2)cc1OC [Example 2]
5.80 | COc1ccc(C2=NS(=O)(=O)N(C)C(C(=O)Nc3ccc4c(c3)OCO4)=C2)cc1OC [Example 9]
6.66 | CC(C)N1C(C(=O)Nc2cccc(C(F)(F)F)n2)=CC(C2CCC(F)(F)CC2)=NS1(=O)=O [Example 126]
7.00 | CCN1C(C(=O)Nc2ccc(C)cc2)=CC(c2ccc(OC)c(C(F)(F)F)c2)=NS1(=O)=O [Example 41]
5.85 | COc1ccc(C2=NS(=O)(=O)N(C)C(C(=O)Nc3ccc(C)cc3)=C2)cc1OC [Example 14]
5.55 | COc1ccc(C2=NS(=O)(=O)N(C)C(C(=O)Nc3ccc(C)cn3)=C2)cc1OC [Example 17]
7.35 | CCN1C(C(=O)Nc2ccc(OC)cc2)=CC(c2ccc(OC)c(C(F)(F)F)c2)=NS1(=O)=O [Example 38]
6.21 | CCN1C(C(=O)Nc2cccc(F)n2)=CC(C2CCC(F)(F)CC2)=NS1(=O)=O [Example 70]
6.92 | O=C(Nc1cccc(F)n1)C1=CC(C2CCC(F)(F)CC2)=NS(=O)(=O)N1CC1CC1 [Example 135]
6.37 | CCN1C(C(=O)Nc2cccc(F)n2)=CC([C@H]2CC3C[C@@H]3C2)=NS1(=O)=O (stereo partly shown) [Example 72]
6.51 | CCN1C(C(=O)Nc2ccc(OC)c(Cl)c2)=CC(c2ccc(OC)c(OC)c2)=NS1(=O)=O [Example 36]
6.16 | COc1ccc(C2=NS(=O)(=O)N(C)C(C(=O)Nc3ccc(C(C)=O)cc3)=C2)cc1OC [Example 3]
7.35 | CC(C)N1C(C(=O)Nc2cccc(F)n2)=CC([C@H]2CC[C@H](C(F)(F)F)CC2)=NS1(=O)=O [Example 125]
6.49 | COc1ccc(C2=NS(=O)(=O)N(CC3CC3)C(C(=O)Nc3cccc(C(F)(F)F)c3)=C2)cc1OC [Example 102]
6.31 | CCN1C(C(=O)Nc2cccc(C(F)(F)F)c2)=CC(c2ccc(C)c(OC)c2)=NS1(=O)=O [Example 49]
6.82 | CCCN1C(C(=O)Nc2cccc(C(F)(F)F)c2)=CC(c2ccc(OC)c(Cl)c2)=NS1(=O)=O [Example 100]

pEC50 | SMILES
6.72 | CCN1C(C(=O)Nc2cncc(F)n2)=CC([C@H]2CC[C@H](C(F)(F)F)CC2)=NS1(=O)=O [Example 63]
6.68 | CCN1C(C(=O)Nc2cccc(C)c2)=CC(c2ccc(OC)c(C)c2)=NS1(=O)=O [Example 45]
7.22 | CCN1C(C(=O)Nc2cccc(C)c2)=CC(c2ccc(OC)c(C(F)(F)F)c2)=NS1(=O)=O [Example 40]
6.14 | CCN1C(C(=O)Nc2ccc(OC(F)(F)F)cc2)=CC(c2ccc(OC)c(OC)c2)=NS1(=O)=O [Example 32]
6.96 | COc1ccc(C2=NS(=O)(=O)N(CC3CC3)C(C(=O)Nc3cccc(C)c3)=C2)cc1OC [Example 117]
6.09 | CCN1C(C(=O)Nc2cccc(C(F)(F)F)c2)=CC(C2CCC(F)(F)CC2)=NS1(=O)=O [Example 51]
7.40 | CCCN1C(C(=O)Nc2cccc(C(F)(F)F)n2)=CC(c2ccc(OC)c(C)c2)=NS1(=O)=O [Example 99]
5.60 | CN1C(C(=O)Nc2cccc(F)n2)=CC(C2CCC(F)(F)CC2)=NS1(=O)=O [Example 56]
7.10 | CCCN1C(C(=O)Nc2cccc(C)c2)=CC(c2ccc(OC)c(OC)c2)=NS1(=O)=O [Example 113]
6.51 | COc1ccc(C2=NS(=O)(=O)N([C@H]3CCOC3)C(C(=O)Nc3cccc(C(F)(F)F)n3)=C2)cc1OC [Example 83]
6.44 | CCN1C(C(=O)Nc2cccc(C(F)(F)F)c2)=CC(c2ccc(OC)c(C)c2)=NS1(=O)=O [Example 44]
7.07 | CCCN1C(C(=O)Nc2cccc(C(F)(F)F)c2)=CC(c2ccc(OC)c(C(F)(F)F)c2)=NS1(=O)=O [Example 115]
6.64 | COc1ccc(C2=NS(=O)(=O)N(C)C(C(=O)Nc3cccc(C(F)(F)F)c3)=C2)cc1OC [Example 12]
6.85 | CCN1C(C(=O)Nc2cccc(C(F)(F)F)n2)=CC(C2CCC(F)(F)CC2)=NS1(=O)=O [Example 68]
6.64 | O=C(Nc1ccc(F)cn1)C1=CC([C@H]2CC[C@H](C(F)(F)F)CC2)=NS(=O)(=O)N1CC1CC1 [Example 133]
6.66 | C=CCN1C(C(=O)Nc2cccc(C(F)(F)F)c2)=CC(c2ccc(OC)c(OC)c2)=NS1(=O)=O [Example 121]
5.92 | CCN1C(C(=O)Nc2cncc(C(F)(F)F)c2)=CC([C@H]2CC[C@H](C(F)(F)F)CC2)=NS1(=O)=O [Example 58]
6.44 | COc1ccc(C2=NS(=O)(=O)N(C)C(C(=O)Nc3cccc(C(F)(F)F)c3)=C2)cc1Cl [Example 26]
6.96 | CC(C)N1C(C(=O)Nc2cncc(C(F)(F)F)n2)=CC([C@H]2CC[C@H](C(F)(F)F)CC2)=NS1(=O)=O [Example 124]
6.52 | CCN1C(C(=O)Nc2cncc(C(F)(F)F)n2)=CC([C@H]2CC[C@H](C(F)(F)F)CC2)=NS1(=O)=O [Example 60]

SMILES | pEC50
CCN1C(C(=O)Nc2cccc(C(F)(F)F)c2)=CC([C@H]2CC3C[C@@H]3C2)=NS1(=O)=O (stereo partly shown) [Example 52] | 5.80
